US6706663B2, “Herbicidal 3-heterocyclic substituted benzisothiazole and benzisoxazole compounds” (Wyeth, priority 2000, dated 2004)

Assays:
[1] = test system: ECHORC (Echinochloa oryzoides); experiment: Flooded paddy, preemergence weed control; type: in vivo, Echinochloa oryzoides (Ard.) Fritsch.; settings: rated 3-4 weeks after treatment, 0-9 rating scale
Experimental: (§1) Results of herbicide evaluation are expressed on a rating scale (0-9). The scale is based upon a visual observation of plant stand, vigor, malformation, size, chlorosis and overall plant appearance as compared with a control.
(§2) Preemergence herbicidal activity under flooded paddy conditions is determined as follows: plant seeds or propagating organs are planted in the top 0.5 cm of silt loam soil in 32 oz. plastic containers with a diameter of 10.5 cm and no drainage holes. Water is added to these containers and maintained at 1.5 to 3 cm above the soil surface for the duration of the experiment. […] The treated containers are placed on greenhouse benches and cared for in accordance with conventional greenhouse procedures.

[2] = test system: ORYSAT (Rice, Tebonnet); experiment: Postemergence herbicidal evaluation; type: in vivo, Oryza sativa, (L.) Tebonnet; settings: postemergence
Experimental: (§3) In the tests, seedling plants are grown in jiffy flats for about two weeks. […] After spraying, the plants are placed on greenhouse benches and are cared for in accordance with conventional greenhouse procedures. From four to five weeks after treatment, the seedling plants are examined and rated according to the rating system set forth below. Where more than one test is involved for a given compound, the data are averaged.
as §1

[3] = test system: AMBEL (Ambrosia artemisifolia); experiment: Postemergence herbicidal evaluation; type: in vivo, L.; settings: postemergence
Experimental: as §3, §1

[4] = test system: CASOB (Cassia obtusifolia); experiment: Postemergence herbicidal evaluation; type: in vivo, L.; settings: postemergence
Experimental: as §3, §1

[5] = test system: CHEAL (Chenopodium album); experiment: Postemergence herbicidal evaluation; type: in vivo, L.; settings: postemergence
Experimental: as §3, §1

[6] = test system: ABUTH (Abutilon theophrasti); experiment: Postemergence herbicidal evaluation; type: in vivo, Medic.; settings: postemergence
Experimental: as §3, §1

[7] = test system: ORYSAT (Rice, Tebonnet); experiment: Preemergence herbicidal evaluation; type: in vivo, Oryza sativa, (L.) Tebonnet; settings: Rate 0.0620 kg/ha; rated 4-5 weeks after treatment
Text: as §1
(§4) The preemergence herbicidal activity of the test compounds of the present invention is exemplified by the following tests in which the seeds of a variety of monocotyledonous and dicotyledonous plants are separately mixed with potting soil and planted on top of approximately one inch of soil in separate pint cups. […] The treated cups are then placed on greenhouse benches, watered and cared for in accordance with conventional greenhouse procedures. From four to five weeks after treatment, the tests are terminated and each cup is examined and rated according to the rating system provided in Example 87. The plant species used and the compounds evaluated are the same as those shown in Example 87.

[8] = test system: ABUTH (Abutilon theophrasti); experiment: Preemergence herbicidal evaluation; type: in vivo, Medic.; settings: Rate 0.0620 kg/ha; rated 4-5 weeks after treatment
Text: as §1, §4

[9] = test system: ZEAMX (Corn, Field); experiment: Postemergence herbicidal evaluation; type: in vivo, Zea mays, L.; settings: postemergence
Experimental: as §3, §1

[10] = test system: SETVI (Setaria viridis); experiment: Postemergence herbicidal evaluation; type: in vivo, (L.) Beau; settings: postemergence
Experimental: In the tests, seedling plants are grown in jiffy flats for about two weeks. The test compounds are dispersed in 50/50 acetone/water mixtures containing 0.5% TWEEN® 20, a polyoxyethylene sorbitan monolaurate surfactant of Atlas Chemical Industries, in sufficient quantities to provide the equivalent of about 0.0040 kg to 1.000 kg per hectare of active compound when applied to the plants through a spray nozzle operating at 40 psi for a predetermined time. After spraying, the plants are placed on greenhouse benches and are cared for in accordance with conventional greenhouse procedures. From four to five weeks after treatment, the seedling plants are examined and rated according to the rating system set forth below. Where more than one test is involved for a given compound, the data are averaged.
as §1

[11] = test system: IPOHE (Ipomoea hederacea); experiment: Preemergence herbicidal evaluation; type: in vivo, (L.) Jacq.; settings: Rate 0.0620 kg/ha; rated 4-5 weeks after treatment
Text: as §1, §4

[12] = test system: GLXMAW (Soybean, Williams); experiment: Postemergence herbicidal evaluation; type: in vivo, Glycine max, (L.) Merr. cv Williams; settings: postemergence
Experimental: as §3, §1

[13] = test system: ZEAMX (Corn, Field); experiment: Preemergence herbicidal evaluation; type: in vivo, Zea mays, L.; settings: Rate 0.0620 kg/ha; rated 4-5 weeks after treatment
Text: as §1, §4

[14] = test system: TRZAWR (Wheat, Winter, cv Riband); experiment: Preemergence herbicidal evaluation; type: in vivo, Triticum aestivum; settings: Rate 0.0620 kg/ha; rated 4-5 weeks after treatment
Text: as §1, §4

[15] = test system: TRZAWR (Wheat, Winter, cv Riband); experiment: Postemergence herbicidal evaluation; type: in vivo, Triticum aestivum; settings: postemergence
Experimental: as §3, §1

[16] = test system: IPOHE (Ipomoea hederacea); experiment: Postemergence herbicidal evaluation; type: in vivo, (L.) Jacq.; settings: postemergence
Experimental: as §3, §1

[17] = test system: AMBEL (Ambrosia artemisifolia); experiment: Preemergence herbicidal evaluation; type: in vivo, L.; settings: Rate 0.0620 kg/ha; rated 4-5 weeks after treatment
Text: as §1, §4

[18] = test system: CASOB (Cassia obtusifolia); experiment: Preemergence herbicidal evaluation; type: in vivo, L.; settings: Rate 0.0620 kg/ha; rated 4-5 weeks after treatment
Text: as §1, §4

[19] = test system: CHEAL (Chenopodium album); experiment: Preemergence herbicidal evaluation; type: in vivo, L.; settings: Rate 0.0620 kg/ha; rated 4-5 weeks after treatment
Text: as §1, §4

[20] = test system: GALAP (Galium aparine); experiment: Postemergence herbicidal evaluation; type: in vivo; settings: postemergence
Experimental: as §3, §1

[21] = test system: GLXMAW (Soybean, Williams); experiment: Preemergence herbicidal evaluation; type: in vivo, Glycine max, (L.) Merr. cv Williams; settings: Rate 0.0620 kg/ha; rated 4-5 weeks after treatment
Text: as §1, §4

[22] = test system: SETVI (Setaria viridis); experiment: Preemergence herbicidal evaluation; type: in vivo, (L.) Beau; settings: Rate 0.0620 kg/ha; rated 4-5 weeks after treatment
Text: as §1, §4

[23] = test system: ECHCG (Echinochloa crus-galli); experiment: Preemergence herbicidal evaluation; type: in vivo, (L.) Beau; settings: Rate 0.0620 kg/ha; rated 4-5 weeks after treatment
Text: as §1, §4

[24] = test system: SAGPY (Sagittaria pygmaea); experiment: Flooded paddy, preemergence weed control; type: in vivo, L.; settings: rated 3-4 weeks after treatment, 0-9 rating scale
Experimental: as §1, §2

[25] = test system: ECHCG (Echinochloa crus-galli); experiment: Postemergence herbicidal evaluation; type: in vivo, (L.) Beau; settings: postemergence
Experimental: as §3, §1

[26] = test system: CYPIR (Cyperus iria); experiment: Flooded paddy, preemergence weed control; type: in vivo; settings: rated 3-4 weeks after treatment, 0-9 rating scale
Experimental: as §1, §2

[27] = test system: GALAP (Galium aparine); experiment: Preemergence herbicidal evaluation; type: in vivo; settings: Rate 0.0620 kg/ha; rated 4-5 weeks after treatment
Text: as §1, §4

[28] = test system: MOOVA (Monochoria vaginalis); experiment: Flooded paddy, preemergence weed control; type: in vivo, Presl.; settings: rated 3-4 weeks after treatment, 0-9 rating scale
Experimental: as §1, §2

[29] = test system: ORYSAT (Rice, Tebonnet); experiment: Flooded paddy, post-transplant rice tolerance; type: in vivo, Oryza sativa, (L.) Tebonnet; settings: in vivo
Experimental: as §1
The tolerance of transplanted rice to post-transplanted herbicide application is determined as follows: two ten-day-old rice seedlings (cv. Tebonnet) are transplanted into silt loam soil in 32 oz. plastic containers with a diameter of 10.5 cm and no drainage holes. After transplanting, the containers are flooded and the water level is maintained at 1.5 to 3 cm above the soil surface. […] The treated containers are placed on greenhouse benches, watered such that the water level is maintained as stated above, and cared for in accordance with conventional greenhouse procedures.

C[C@@H]1OC(c2nsc3cc(F)c(-n4c(=O)cc(C(F)(F)F)n(C)c4=O)cc23)O[C@@H]1C (stereo partly drawn) [Compound 66, 3-[3-[(4R,5S-)-4,5-dimethyl-1,3-dioxolan-2-yl]-6-fluoro-1,2-benzisothiazol-5-yl]-1-methyl-6-(trifluoromethyl)uracil]
5.0: ECHCG herbicidal rating ([25]; rate 0.0620 kg/ha)
2.0: ECHCG herbicidal rating ([25]; rate 0.0320 kg/ha)
8.5: Preemergence herbicidal rating ORYSAT [7]
4.0: TRZAWR herbicidal rating ([15]; rate 0.0320 kg/ha) | TRZAWR herbicidal rating ([15]; rate 0.0620 kg/ha)
2.5: herbicidal rating, SAGPY ([24]; rate 0.0080 kg/ha) | herbicidal rating, CYPIR ([26]; rate 0.0080 kg/ha)
7.0: Preemergence herbicidal rating GALAP [27]
8.0: CASOB herbicidal rating ([4]; rate 0.0320 kg/ha) | SETVI herbicidal rating ([10]; rate 0.0320 kg/ha) | Preemergence herbicidal rating ZEAMX [13] | Preemergence herbicidal rating TRZAWR [14]
0.0: herbicidal rating, MOOVA ([28]; rate 0.0080 kg/ha)
5.5: ZEAMX herbicidal rating ([9]; rate 0.0320 kg/ha) | ZEAMX herbicidal rating ([9]; rate 0.0620 kg/ha)
4.5: herbicidal rating, ECHORC ([1]; rate 0.0080 kg/ha) | ORYSAT herbicidal rating ([2]; rate 0.0320 kg/ha) | ORYSAT herbicidal rating ([2]; rate 0.0620 kg/ha)
6.0: Preemergence herbicidal rating CASOB [18] | herbicidal rating, CYPIR ([26]; rate 0.0320 kg/ha)
9.0: herbicidal rating, ECHORC ([1]; rate 0.0320 kg/ha) | herbicidal rating, ECHORC ([1]; rate 0.1250 kg/ha) | AMBEL herbicidal rating ([3]; rate 0.0320 kg/ha) | AMBEL herbicidal rating ([3]; rate 0.0620 kg/ha) | CASOB herbicidal rating ([4]; rate 0.0620 kg/ha) | CHEAL herbicidal rating ([5]; rate 0.0320 kg/ha) | CHEAL herbicidal rating ([5]; rate 0.0620 kg/ha) | ABUTH herbicidal rating ([6]; rate 0.0320 kg/ha) | ABUTH herbicidal rating ([6]; rate 0.0620 kg/ha) | Preemergence herbicidal rating ABUTH [8] | SETVI herbicidal rating ([10]; rate 0.0620 kg/ha) | GLXMAW herbicidal rating ([12]; rate 0.0320 kg/ha) | GLXMAW herbicidal rating ([12]; rate 0.0620 kg/ha) | IPOHE herbicidal rating ([16]; rate 0.0320 kg/ha) | IPOHE herbicidal rating ([16]; rate 0.0620 kg/ha) | Preemergence herbicidal rating AMBEL [17] | Preemergence herbicidal rating CHEAL [19] | GALAP herbicidal rating ([20]; rate 0.0320 kg/ha) | GALAP herbicidal rating ([20]; rate 0.0620 kg/ha) | Preemergence herbicidal rating GLXMAW [21] | Preemergence herbicidal rating SETVI [22] | Preemergence herbicidal rating ECHCG [23] | herbicidal rating, SAGPY ([24]; rate 0.0320 kg/ha) | herbicidal rating, SAGPY ([24]; rate 0.1250 kg/ha) | herbicidal rating, CYPIR ([26]; rate 0.1250 kg/ha) | herbicidal rating, MOOVA ([28]; rate 0.0320 kg/ha) | herbicidal rating, MOOVA ([28]; rate 0.1250 kg/ha)
7.5: Preemergence herbicidal rating IPOHE [11]

Cn1c(C(F)(F)F)cc(=O)n(-c2ccc3snc(-c4cccnc4)c3c2)c1=O [Example 11]
0.0: herbicidal rating, ORYSAT (rice tolerance) [29]
